The test has as its system syngeneic C57BL/6 mice. The experiment in a line: Syngeneic mouse model of endometriosis: mechanical allodynia by von Frey pain stimulation procedure. It is filed as in vivo. The note with it: 30 mg/kg i.p., day 4 and 5, measured one hour following treatment; p<0.05; FIG. 1A. As to the method: A P2X3 receptor antagonist compound of Formula (I) described herein was evaluated in the syngeneic mouse model of endometriosis.
C57BL/6 mice (8 weeks old) were anesthetized before making a vertical incision on the abdomen. The uterus was collected and divided into pieces of 5 millimeters which were then surgically sutured onto the peritoneum of syngeneic recipient animals. The recipient mice were also treated with oestradiol and the resulting lesions were allowed to develop for 11 weeks.
Baseline measurements were established on Day 0 by measuring mechanical allodynia in all transplanted mice using a von Frey pain stimulation procedure in accordance with the protocol described below. On Day 1 transplanted mice were injected with saline (i.p.) and mechanical allodynia was again measured using the von Frey filament method (control). […] Mechanical allodynia was evaluated using the von Frey pain stimulation procedure. […] The mice were euthanized on Day 6 and evaluated for the presence of endometriotic lesions.
Animals were placed in small cages with a mesh or otherwise penetrable bottom. The pain threshold was evaluated with von Frey filaments using the simplified up-down method, which determines the mechanical force required to elicit a positive pain response in animals. […]

Regarding `CNC(=O)c1cc(F)c(-c2nc3cc(C)ccn3c2C[C@H]2CN(C(=O)OC)CCO2)c(F)c1` [Compound 1], the “stimulus threshold (von Frey test; pressure stimulus required to elicit behavioral response, change from baseline Day 0)” value was “greater stimulus threshold”.

The record behind these values is patent US12485125B2, “Treatment with P2X3 modulators” (GlaxoSmithKline Intellectual Property (No. 3) Limited, priority 2019, dated 2025).
